The values below come from patent US20050112059A1, “Enhancement of radiotherapy by an exogenous cardiac glycoside” (Phoenix Biotechnology, Inc., priority 2003, published 2005).

Data set [1] relates to PC-3 cells. The experiment in a line: Apoptosis by TUNEL assay and flow cytometry. Type of data set: cell-based, human. The procedure:
PC-3 cells were incubated with 0.05 μg/ml oleandrin for 24 hours, irradiated at 2 Gy, or both. The control cells were untreated. The medium containing oleandrin was removed, fresh medium was added, and 24 hours later the apoptotic index was determined.
Apoptosis was determined by staining and flow cytometry analysis. The terminal deoxynucleotidyltransferase (“TdT”) dUTP nick end labeling (“TUNEL”) assay to identify the DNA fragmentation (APO-DIRECT kit, Pharmingen, San Diego, Calif.) was performed according to the manufacturer's instructions. Briefly, cells (2×10^6) were fixed in 1% paraformaldehyde and washed in PBS. Cells were suspended in 70% ethanol and stored at −20° C. until use. Re-suspended cells were stained in a solution containing TdT and FITC-dUTP and incubated overnight at room temperature in the dark. They were then rinsed and re-suspended in 0.5 ml propidium iodide/RNase A solution and analyzed by flow cytometry.

Data set [2] deals with PC-3 cells. The data set is described as follows: Colony forming ability of PC-3 cells after oleandrin and graded γ-irradiation. Type of data set: cell-based, human. The method, then: The human prostate carcinoma cell line PC-3 was obtained from the American Type Culture Collection and maintained in RPMI 1640 medium supplemented with 10% fetal calf serum, 10,000 U/ml of penicillin-streptomycin, and 2 mM L-glutamine. Cells were grown as monolayers in 75-cm^2 flasks and maintained in a humidified 5% CO2/95% air atmosphere at 37.8° C.
[…] graded doses (2, 4 or 6 Gy) of γ-rays using a ^137Cs source (3.7 Gy/min) and assayed for colony forming ability by replating them in specified numbers into 100-mm dishes containing drug-free media. After 12 days of incubation, cells were stained with 0.5% crystal violet in absolute ethanol, and colonies with more than 50 cells were counted. The average survival levels were fit by least squares regression using a linear quadratic model. Survival curves were constructed with normalized values for the cytotoxicity induced by oleandrin alone. Oleandrin by itself reduced plating efficiency from the 95% control value to 21%.
The untreated control samples are represented by the open circles and the oleandrin treated samples are represented by the filled circles. Values shown are the means±SE for three independent experiments. The enhancement factor at the cell survival fraction of 0.1 was 1.32.

The test system of data set [3] is human tumor cell lines. Particulars: cited from earlier work.
The subject of data set [4] is murine tumor cell lines. Particulars: cited from earlier work.
The subject of data set [5] is caspase-3. The data set is described as follows: Caspase-3 activation by western blotting. It counts as cell-based, human. The procedure: To determine whether caspase-3 activation was involved in the oleandrin-induced enhancement of PC-3 cell radioresponse, cells were treated with 5 Gy or 0.05 μg/ml oleandrin or a combination of both treatments for 24 hours. Cells were assayed for caspase-3 activation 24 hours after treatment using western blotting. cells were lysed in a buffer containing 50 mM Tris-HCl (pH 8), 450 mM NaCl, 1% triton X-100, 5 mM EDTA, 1% (v/v) of protease inhibitor cocktail, and 1% (v/v) phosphatase inhibitor cocktails I and II (Sigma, St. Louis, Mo.). Protein ([…] per lane) was separated by sodium dodecyl sulfate-polyacrylamide gel electrophoresis (“SDS-PAGE”) and transferred to a polyvinylidene difluoride (“PVDF”) membrane (Bio-Rad Laboratories, Hercules, Calif.). The membrane was blocked by 5% non-fat dry milk in Tris-buffered saline and 0.1% Tween-20 (“TBS-T”) and before incubation with a designated primary antibody (Pharmingen, San Diego, Calif.). After washing the membrane with TBS-T, it was incubated in secondary antibody and the immunoreaction was visualized using an ECL western blotting kit (Amersham Corp., Arlington Heights, Ill.).

In data set [6] the test system is NF-kB. To be noted: cited from earlier work.
The subject of data set [7] is PC-3 cells. The data set is described as follows: Clonogenic cell survival with caspase-3 inhibitor, oleandrin and radiation. Particulars: for Survival of cells (%) following radiation of 2 Gy / Survival of cells (%) following radiation of 6 Gy / Survival of cells (%) following radiation of O Gy: oleandrin 0.05 μg/ml 24 hours, ZDEVD-FMK 100 μM added 2 hours before oleandrin; for Survival of cells (%) following radiation of 2 Gy: control 74.6 ± 3.4; for Survival of cells (%) following radiation of 6 Gy: control 7.8 ± 0.6; for Survival of cells (%) following radiation of O Gy: no radiation, percent control, mean±SE. Type of data set: cell-based, human. The procedure:
PC-3 cells were incubated with 0.05 μg/ml oleandrin for 24 hours before being irradiated with 2 or 6 Gy. […] Clonogenic cell survival was then determined. Colonies were counted and the survival of cells (percent control) was calculated. Data are presented as mean±SE from three experiments.

Data set [8] deals with PC-3 cells. The data set is described as follows: Hoechst 33258 staining of apoptotic cells, fluorescent microscope. Type of data set: cell-based, human. Particulars: oleandrin plus radiation versus any other treated or control population. The source says: In addition, the control cells and the experimental cells were stained with a fluorescent dye, Hoechst 33258, that binds to fragmented DNA. The PC-3 cells were observed under a fluorescent microscope.

Data set [9] deals with PC-3 cells. The data set is described as follows: Effect of duration of oleandrin exposure on radiosensitivity (colony survival, 3 Gy). Type of data set: cell-based, human. The method, then: The magnitude of radiosensitization depended on duration of exposure of cells to oleandrin prior to radiation. PC-3 cells were incubated in the presence of 0.05 μg/ml oleandrin for 1-24 hours. After oleandrin treatment, cells were irradiated with 3 Gy radiation and plated as in Example 1. Colonies were counted after 12 days and percent surviving fractions were plotted. […] Cell survival after 3 Gy radiation only was 50% compared to 30% after 3 Gy radiation plus 0.05 μg/ml oleandrin. Values shown are means±SE for three independent experiments. The average survival levels were fit by least squares regression using a linear quadratic model.

In data set [10] the test system is A549 human lung adenocarcinoma cells. To be noted: cited from earlier work.
The subject of data set [11] is normal human lung fibroblasts. Particulars: cited from earlier work.
In data set [12] the test system is human tumor cells including squamous cell carcinoma and melanoma. Particulars: squamous cell carcinoma and melanoma among types; cited from earlier work.

For `CO[C@H]1C[C@H](O[C@H]2CC[C@@]3(C)[C@H](CC[C@@H]4[C@@H]3CC[C@]3(C)[C@@H](C5=CC(=O)OC5)[C@@H](OC(C)=O)C[C@]43O)C2)O[C@@H](C)[C@@H]1O` [Oleandrin, oleandrin], the “percentage of apoptotic cells” value in data set [1] (0.05 μg/ml oleandrin 24 hours alone, measured 24 hours later, control 2.1±0.4) is reported as 63.5±6.1%. The “percentage of apoptotic cells” value in [1] (0.05 μg/ml oleandrin 24 hours plus 2 Gy, 2 Gy alone 8.2±3.4%) is on record as 85.8±5.3%. In data set [1] (oleandrin 0.05 μg/ml plus 2 Gy), the “combination effect on apoptosis versus individual treatments” value is on record as “more than the additive effects”. In data set [2] (oleandrin 0.025 μg/ml), the cytotoxicity by itself entry is recorded as “non-cytotoxic” and the influence on radiosensitization entry was “no significant influence”. Also, the “enhancement factor at the cell survival fraction of 0.1” value in [2] (oleandrin 0.05 μg/ml 24 hours, then 2, 4 or 6 Gy γ-rays) came to 1.32. The plating efficiency in data set [2] (oleandrin 0.05 μg/ml for 24 hours, by itself (no radiation), control value 95%) came to 21%. Further, the induction of apoptosis result in data set [3] was “induces apoptosis”. In addition, the induction of apoptosis entry in data set [4] is “not in murine tumor cell lines”. In addition, the “activation of caspase-3” value in data set [5] (0.05 μg/ml oleandrin alone, 24 hours, assayed 24 hours after treatment) was “effective”. Moreover, in data set [5] (0.05 μg/ml oleandrin combined with 5 Gy), the “level of caspase-3 activation” value is recorded as “higher”. The “activation of NF-kB” value in [6] is listed as “inhibits activation”. Besides, in data set [7], the “Survival of cells (%) following radiation of 2 Gy” value came to 55.5 ± 1.9%, the “Survival of cells (%) following radiation of 6 Gy” value stood at 3.1 ± 0.8% and the “Survival of cells (%) following radiation of O Gy” value worked out at 88.9 ± 2.9%. In addition, the “apoptotic cells observed (Hoechst 33258)” value in data set [8] is reported as “More apoptotic cells”. Besides, in data set [9] (0.05 μg/ml oleandrin 1-24 hours, 3 Gy), the “radiosensitizing effect versus duration of exposure” value is “increased as the duration of exposure to oleandrin increased up to 24 hours”. The cell survival in [9] (3 Gy radiation plus 0.05 μg/ml oleandrin, exposure 1 hour, 3 Gy only 50%) is 30%.
ZDEVD-FMK [Z-DEVD-FMK]: in data set [7], the “Survival of cells (%) following radiation of 2 Gy” value is on record as 77.8 ± 3.2%, the “Survival of cells (%) following radiation of 6 Gy” value was determined as 8.6 ± 2.1% and the “Survival of cells (%) following radiation of O Gy” value amounted to 97.4 ± 1.7%. Besides, the “effect on oleandrin-induced enhancement of radiation response” value in [7] (ZDEVD-FMK 100 μM with oleandrin 0.05 μg/ml) was “abolished”.
On to `C[C@@H]1O[C@@H](O[C@H]2C[C@@H](O)[C@]3(CO)[C@H]4[C@H](O)C[C@]5(C)[C@@H](C6=CC(=O)OC6)CC[C@]5(O)[C@@H]4CC[C@]3(O)C2)[C@H](O)[C@H](O)[C@H]1O` [Ouabain, ouabain], for which the in vitro radiosensitivity entry in [10] is reported as “enhance in vitro radiosensitivity”. The modification of radioresponse result in data set [11] is “ineffective”. The radiosensitization result in [12] is listed as “radiosensitize”.
